Measured values published in patent US10702518B2, “TAF1 inhibitors for the therapy of cancer” (CeMM—Forschungszentrum für Molekulare Medizin GmbH, priority 2016, dated 2020).

Key:
TAF1(BD2) [1] = molecular target: T1, TAF1(BD2) (Homo sapiens, UniProt P21675); assay: BROMOscan primary screen, binding to TAF1(BD2); conditions: for inhibition at 1 µM: read-out: TAF1_BD2 (% inhibition at 1 μM); for TAF1_BD2 (% inhibition at 1 μM): 1 μM compound, DMSO = 0%, 30 μM BI2536 = 100% inhibition
T1 construct: the second bromodomain of TAF1 (TAF1 (2)); purchased DiscoverX Corporation (contract assay); host or cells: T7 phage in E. coli host derived from BL21
T1 sequence (P21675 1519-1628 limits assumed): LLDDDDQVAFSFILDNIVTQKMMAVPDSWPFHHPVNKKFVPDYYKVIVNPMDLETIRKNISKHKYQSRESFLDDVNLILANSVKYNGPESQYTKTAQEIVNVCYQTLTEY
Experimental: The binding of these compounds to TAF1 was tested by DiscoverX Corporation (Fremont, Calif., USA) in a primary screen using the BROMOscan assay, which is a ligand binding site-directed competition assay that allows to quantitatively measure interactions between test compounds and bromodomains (see Fabian et al., 2005 for an explanation of the principle of this assay), according to the following protocol:
(§1) Bromodomain assays: T7 phage strains displaying bromodomains were grown in parallel in 24-well blocks in an E. coli host derived from the BL21 strain. E. coli were grown to log-phase and infected with T7 phage from a frozen stock (multiplicity of infection=0.4) and incubated with shaking at 32° C. until lysis (90-150 minutes). The lysates were centrifuged (5,000×g) and filtered (0.2 μm) to remove cell debris. Streptavidin-coated magnetic beads were treated with biotinylated small molecule or acetylated peptide ligands for 30 minutes at room temperature to generate affinity resins for bromodomain assays. The liganded beads were blocked with excess biotin and washed with blocking buffer (SeaBlock (Pierce), 1% BSA, 0.05% Tween 20, 1 mM DTT) to remove unbound ligand and to reduce non-specific phage binding. […] Test compounds were prepared as 1000× stocks in 100% DMSO and subsequently diluted 1:25 in monoethylene glycol (MEG). The compounds were then diluted directly into the assays such that the final concentrations of DMSO and MEG were 0.1% and 2.4%, respectively. All reactions were performed in polypropylene 384-well plates in a final volume of 0.02 ml. […] The bromodomain concentration in the eluates was measured by qPCR.

REDS3 cells = assay: RFP reporter expression in REDS3 cells (live cell imaging); assay type: cell-based, human; conditions: for confirmed screening hit (RFP induction in REDS3 screen): library screen of 89,355 small molecules; for RFP expression in REDS3 cells: single agent
Experimental: Cells were seeded on clear flat bottom 96-well or 384-well plates (Corning) and treated with the indicated compounds for the specified conditions. Live cell imaging pictures were taken with the Operetta High Content Screening System (PerkinElmer), 20× objective and non-confocal mode.
Only RFP-positive nuclei were detected and counted.
The increase of RFP fluorescence, detected with the Operetta High Content Screening System (PerkinElmer), 20× objective and non-confocal mode, was used as read-out.
Briefly, the screening was divided in three parts called respectively 1) primary screening, 2) follow up and 3) validation. During the primary screening REDS3 cells were treated with 10 μM of every compound, and live cell imaging pictures were taken in order to assess their ability to induce RFP expression 24 hours later.

THP1 cells [2] = assay: Cell cycle assay in THP1 cells; conditions: 48 hours
Experimental: (e) Quantification of cells in S-phase by staining the nuclei with PI and analyzing DNA content by FACS. […] Three different biological replicates were performed and 30,000 cells were analysed each time (mean±STD).
For cell cycle analysis, cells were fixed with 70% ethanol for 24 hours, washed with PBS/0.1%-Tween and incubated with RNase for 20 minutes. Nuclei were stained with 5 μg/ml PI (propidium iodide, Sigma) for 10 minutes prior to FACS analysis (BD FACSCalibur Flow Cytometer).

THP1 cells [3] = assay: AnnexinV apoptosis assay in THP1 cells; conditions: 72 hours
Experimental: (f) Quantification of AnnexinV positive cells from immunofluorescence images. […] At least 3 biological replicates were performed and more than 1,500 cells were quantified for each point (mean±STD).
Apoptotic cells were detected using the Annexin V-FITC Apoptosis detection kit (Abcam) according to the manufacturer's instruction. Apoptosis quantification was performed with the Harmony software (PerkinElmer) for nuclei and cytoplasm detection and analysis, adapted for the nucleus diameter range and cell shape of the specific cell line used.

KBM7 cells = assay: CellTiterGlo viability of control and TAF1 downregulated KBM7 cells; conditions: shRNA TAF1 vs control, 96 hours
TAF1(BD2) [4] = molecular target: T1, TAF1(BD2); assay: BROMOscan binding constant determination for TAF1(BD2); conditions: 11-point 3-fold dilution series, read-out: TAF1_BD2 (IC50 μM)
Experimental: as §1, with “100% DMSO. Kds were determined using an 11-point 3-fold compound dilution series with one” for “100%”, “control point. […]” for “and subsequently diluted 1:25 in monoethylene glycol (MEG).”, “concentration” for “concentrations”, “was 0.09%.” for “and MEG were 0.1% and 2.4%, respectively.”, “reactions” for “reactions were”, “plates. Each was” for “plates in”
Compound handling: An 11-point 3-fold serial dilution of each test compound was prepared in 100% DMSO at 1000× final test concentration. […] The compounds were then diluted directly into the assays such that the final concentration of DMSO was 0.09%. Most Kds were determined using a compound top concentration=10,000 nM. If the initial Kd determined was <0.169 nM (the lowest concentration tested), the measurement was repeated with a serial dilution starting at a lower top concentration.
Binding constants (Kds) were calculated with a standard dose-response curve using the Hill equation: […]
The Hill Slope was set to −1. Curves were fitted using a non-linear least square fit with the Levenberg-Marquardt algorithm.
The results thus obtained are reported in the following table as IC50 values [μM] for TAF1(BD2).

TAF1 (2) = molecular target: T2, TAF1 (2) (Homo sapiens, UniProt P21675); assay: BromoScan / BromoELECT / BromoKdELECT, TAF1 (2); assay type: binding; conditions: BromoScan/BromoELECT, 10 μM
T2 construct: the second bromodomain of TAF1 (TAF1 (2)); purchased DiscoverX Corporation (contract assay); host or cells: T7 phage in E. coli host derived from BL21
T2 sequence (P21675 1519-1628 limits assumed): T1 sequence (P21675 1519-1628 limits assumed)
Experimental: (§2) Bubbles indicate the percentage of inhibition of the binding of the analyzed bromodomains to an acetylated substrate. […] (g) BromoKdELECT assay for CeMMEC1 against TAF1 (2). […] (i) Docking of CeMMEC1 to the second bromodomain of TAF1. 3D model (top panel) and 2D ligand interaction diagram (bottom panel). Red dots in the 3D model indicate water molecules.
(§3) (c) not used (d) KinomeScan profile for CeMMEC1 (10 μM). Bubbles indicate the percentage of inhibition of the binding of the analyzed kinase to an immobilized ligand.

CREBBP = CREBBP (Homo sapiens, UniProt Q92793); assay: BromoScan / BromoELECT / BromoKdELECT, CREBBP; assay type: binding; conditions: BromoScan/BromoELECT, 10 μM
Experimental: as §2, §3

Sequence of CREBBP (Q92793 1085-1192 limits assumed): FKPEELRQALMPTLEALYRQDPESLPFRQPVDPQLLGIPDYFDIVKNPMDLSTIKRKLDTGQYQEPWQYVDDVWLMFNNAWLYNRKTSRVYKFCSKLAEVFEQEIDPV

Compound: Cn1c(=O)cc(C(=O)Nc2ccc(OC(F)(F)F)cc2)c2ccccc21 [Compound 4-3]
- inhibition at 1 µM (TAF1(BD2) [1]): 20%

Compound: COc1ccc(CCc2nc3cc(-c4c(C)noc4C)ccc3n2C[C@H](C)N2CCOCC2)cc1Cl [CBP30]
- increase of RFP-positive cells compared to DMSO treated cells (REDS3 cells; 10 μM, 24 hours): 1.5 fold

Compound: Cc1sc2c(c1C)C(c1ccc(Cl)cc1)=N[C@@H](CC(=O)OC(C)(C)C)c1nnc(C)n1-2 [(S)-JQ1, reference compound]
- lowest concentration causing full activation of RFP signal (REDS3 cells; 24 hours): 0.5 µM
- confirmed screening hit (RFP induction in REDS3 screen) (REDS3 cells; 24 hours): part of this group
- RFP expression in REDS3 cells (REDS3 cells): clear and robust increase of RFP expression
- number of cells in S-phase (THP1 cells [2]): clear and dose-dependent decrease of the number of cells in S-phase
- apoptosis (AnnexinV staining) (THP1 cells [3]): induced apoptosis
- cell viability with TAF1 downregulation (KBM7 cells): Downregulation of TAF1 decreased cell viability when (S)-JQ1 was used at concentrations not able to affect control cells

Compound: COc1cc(NC(=O)c2ccn(C)c(=O)c2)cc(OC)c1 [Compound 4-14]
- inhibition at 1 µM (TAF1(BD2) [1]): 20%

Compound: COc1cc(OC)c2c(=O)[nH]c(-c3cc(C)c(OCCO)c(C)c3)nc2c1 [RVX208]
- confirmed screening hit (RFP induction in REDS3 screen) (REDS3 cells; 24 hours): part of this group

Compound: Cn1ccc(C(=O)Nc2ccc3c(c2)OCCO3)cc1=O [Compound 4-10]
- inhibition at 1 µM (TAF1(BD2) [1]): 3%

Compound: Cn1c(=O)ccc2c(C(=O)Nc3ccc4c(c3)OCCO4)cccc21 [Compound 4-24]
- inhibition at 1 µM (TAF1(BD2) [1]): 58%

Compound: Cn1c(=O)ccc2c(NC(=O)c3ccc4c(c3)CCCO4)cccc21 [Compound 4-25]
- TAF1_BD2 (% inhibition at 1 μM) (TAF1(BD2) [1]): 4%

Compound: COc1ccc(C(=O)Nc2cccc3c(=O)n(C)ccc23)cc1 [Compound 4-16]
- inhibition at 1 µM (TAF1(BD2) [1]): 34%

Compound: COc1ccc(NC(=O)c2cc(=O)n(C)c3ccccc23)cc1 [Compound 4-2]
- inhibition at 1 µM (TAF1(BD2) [1]): 9%

Compound: Cn1c2c(ccc1=O)C(NC(=O)c1ccc3c(c1)OCCO3)CCC2 (stereo not shown) [Compound 4-29]
- inhibition at 1 µM (TAF1(BD2) [1]): 32%

Compound: Cn1ccc(C(=O)Nc2ccc(OC(F)(F)F)cc2)cc1=O [Compound 4-13]
- inhibition at 1 µM (TAF1(BD2) [1]): 3%

Compound: CCC(=O)N1CCOc2c(cc(-c3ccc(OC)c(OC)c3)cc2OC[C@H]2CCCN(C)C2)C1 [I-CBP112]
- RFP expression in REDS3 cells (REDS3 cells): No RFP expression was detected

Compound: Cn1c(=O)cc(C(=O)Nc2ccc3c(c2)OCCO3)c2ccccc21 [Compound 4-1]
- TAF1_BD2 (% inhibition at 1 μM) (TAF1(BD2) [1]): 89%
- IC50 (TAF1(BD2) [4]): 0.25 µM

Compound: CC[C@@H]1C(=O)N(C)c2cnc(Nc3ccc(C(=O)NC4CCN(C)CC4)cc3OC)nc2N1C1CCCC1 [BI-2536]
- confirmed screening hit (RFP induction in REDS3 screen) (REDS3 cells; 24 hours): part of this group

Compound: COc1cc2c(cc1-c1c(C)noc1C)ncc1[nH]c(=O)n([C@H](C)c3ccccn3)c12 [I-BET151]
- confirmed screening hit (RFP induction in REDS3 screen) (REDS3 cells; 24 hours): part of this group

Compound: COc1ccccc1S(=O)(=O)Nc1ccc2c(c1)CN(C)C(=O)N2 [PFI1]
- confirmed screening hit (RFP induction in REDS3 screen) (REDS3 cells; 24 hours): part of this group

Compound: COc1ccc(C(=O)NC2CCCc3c2ccc(=O)n3C)cc1 (stereo not shown) [Compound 4-31]
- inhibition at 1 µM (TAF1(BD2) [1]): 34%

Compound: COc1cc(OC)cc(C(=O)Nc2cccc3c2ccc(=O)n3C)c1 [Compound 4-28]
- inhibition at 1 µM (TAF1(BD2) [1]): 50%

Compound: COc1cc(OC)cc(C(=O)NC2CCCc3c2ccc(=O)n3C)c1 (stereo not shown) [Compound 4-33]
- inhibition at 1 µM (TAF1(BD2) [1]): 11%

Compound: phytohemagglutinin [PHA]
- RFP expression in REDS3 cells (REDS3 cells): No increase of RFP-positive nuclei was observed

Compound: Cn1ccc2c(NC(=O)c3ccc4c(c3)OCCO4)cccc2c1=O [Compound 30]
- IC50 (TAF1(BD2) [4]): 4 µM
- binding to TAF1 (2) (TAF1 (2)): retaining TAF1 activity
- binding to CREBBP (CREBBP): lost all affinity to CREBBP
- RFP expression in REDS3 cells in combination with (S)-JQ1 (REDS3 cells; combination with (S)-JQ1): further boosted RFP expression beyond the increase in single treatments
- RFP expression in REDS3 cells (REDS3 cells): comparable induction of RFP expression in REDS3 cells

Compound: Cc1sc2c(c1C)C(c1ccc(Cl)cc1)=N[C@@H](CC(=O)Nc1ccc(O)cc1)c1nnc(C)n1-2 [OXT015]
- confirmed screening hit (RFP induction in REDS3 screen) (REDS3 cells; 24 hours): part of this group

Compound: COc1cc(NC(=O)c2cc(=O)n(C)c3ccccc23)cc(OC)c1 [Compound 4-4]
- inhibition at 1 µM (TAF1(BD2) [1]): 48%

Compound: Cn1c2c(ccc1=O)C(NC(=O)c1ccc(OC(F)(F)F)cc1)CCC2 (stereo not shown) [Compound 4-32]
- inhibition at 1 µM (TAF1(BD2) [1]): 10%

Compound: Cc1cnc(Nc2ccc(OCCN3CCCC3)cc2)nc1Nc1cccc(S(=O)(=O)NC(C)(C)C)c1 [TG-101348]
- confirmed screening hit (RFP induction in REDS3 screen) (REDS3 cells; 24 hours): part of this group

Compound: CCCCCCCCCCCCCC(=O)O[C@@H]1[C@@H](C)[C@@]2(O)[C@@H](C=C(CO)C[C@]3(O)C(=O)C(C)=C[C@@H]23)[C@@H]2C(C)(C)[C@]12OC(C)=O [PMA, phorbol myristate acetate]
- RFP expression in REDS3 cells (REDS3 cells): No increase of RFP-positive nuclei was observed

Compound: COc1ccc(C(=O)Nc2cccc3c2ccc(=O)n3C)cc1 [Compound 4-26]
- TAF1_BD2 (% inhibition at 1 μM) (TAF1(BD2) [1]): 82%
- IC50 (TAF1(BD2) [4]): 0.056 µM

Compound: Cn1ccc2c(NC(=O)c3ccc(OC(F)(F)F)cc3)cccc2c1=O [Compound 4-17]
- inhibition at 1 µM (TAF1(BD2) [1]): 11%
